Data: patent publication US20130225830A1, “POLYMORPHS OF FEBUXOSTAT” (MAPI PHARMA LIMITED, priority 2010, published 2013)
“And” between values parts separate entries of the source, which are not always exact repeats. Identical values can stand only once.

How the values were obtained:
Format in all cases: physicochemical
[1] = Hygroscopicity measurements (DVS sorption/desorption profiles)
Procedure: The sorption/desorption profiles of the forms of the present invention were tested at 25° C. under 0-90% relative humidity. The forms of the present invention were classified according to the following criteria: Deliquescent: Sufficient water is absorbed to form a liquid. […] Hygroscopic: Increase in mass is less than 15% and equal to or greater than 2%. Slightly hygroscopic: Increase in mass is less than 2% and equal to or greater than 0.2%. Non-hygroscopic: Increase in mass is less than 0.2%.

[2] = Solid stability measurements (appearance, assay and total related substances by HPLC); details: for Remaining (%): one value for both samples, vs −20° C. control; for Appearance / TRS (%): samples 1 and 2
Procedure: The detailed chromatographic conditions are listed hereinbelow. The typical retention time of febuxostat main peak is 8.2 min. [table] Testing conditions: 40° C., 60° C., 40° C./RH 75%, 60° C./RH 75%, light Testing procedure: About 3 mg of a febuxostat form were weighed in a glass vial and stored under the different conditions for 1 week and 2 weeks, separately. The same febuxostat form was stored at −20° C. as control. The test was conducted in duplication. The physical appearance, assay and total related substances of each of the febuxostat forms were measured by HPLC at the end of the first and second weeks.

[3] = Physical stability measurements (XRPD, DSC, TGA)
Procedure: Testing conditions: 40° C., 60° C., 40° C./RH 75%, 60° C./RH 75%, light
Testing procedure: About 50 mg of a febuxostat form were weighed in glass vial for testing the physical stability and were stored under different conditions for 1 week and 2 weeks, separately. The same febuxostat form was stored at −20° C. as control. XRPD, DSC and TGA of each of the febuxostat forms were measured at the end of the first and second weeks.

[4] = Bulk and tapped density measurements
Procedure: Bulk density testing: A febuxostat form in an amount which is sufficient to complete the test was passed through a 1.0 mm (No. 18) screen to break up agglomerates that may have formed during storage. The febuxostat form was then weighed (M) and the powder was added into a 10 mL graduated cylinder. The powder was carefully leveled without compacting, and the unsettled apparent volume, Vo, was read. The bulk density, in g per mL, was calculated by the formula: Bulk Density=M/Vo Tapped density testing: A febuxostat form in an amount which is sufficient to complete the test was passed through a 1.0 mm (No. 18) screen to break up agglomerates that may have formed during storage. The febuxostat form was then weighed and the powder was added into a 10 mL graduated cylinder. The powder was carefully leveled without compacting. The cylinder was tapped 500 times initially and the tapped volume, Va, was measured to the nearest graduated unit. The tapping was then repeated for additional 750 times and the tapped volume, Vb, was measured to the nearest graduated unit. If the difference between the two volumes was less than 2%, Vb was taken as the final tapped volume, Vf. The tapped density, in g per mL, was calculated by the formula: Tapped Density=M/Vf

Cc1nc(-c2ccc(OCC(C)C)c(C#N)c2)sc1C(=O)O [Form IX, 2-(3-cyano-4-isobutoxyphenyl)-4-methyl-5-thiazolecarboxylic acid]
Hygroscopicity classification ([1]; 25° C., 0-90% relative humidity): hygroscopic | hygroscopicity compared with Form G of U.S. Pat. No. 6,225,474 ([1]; DVS isotherm plots): less hygroscopic | Change in Mass (%) - ref, Desorption ([1]; Target % P/P0 0.0, 25° C.): 0.031% | Change in Mass (%) - ref, Sorption ([1]; Target % P/P0 0.0, 25° C.): 0.000% | Change in Mass (%) - ref, Desorption ([1]; Target % P/P0 10.0, 25° C.): 0.247% | Change in Mass (%) - ref, Hysteresis ([1]; Target % P/P0 10.0, 25° C.): 0.121% | Change in Mass (%) - ref, Sorption ([1]; Target % P/P0 10.0, 25° C.): 0.127% | Change in Mass (%) - ref, Desorption ([1]; Target % P/P0 20.0, 25° C.): 0.323% | Change in Mass (%) - ref, Hysteresis ([1]; Target % P/P0 20.0, 25° C.): 0.128% | Change in Mass (%) - ref, Sorption ([1]; Target % P/P0 20.0, 25° C.): 0.195% | Change in Mass (%) - ref, Desorption ([1]; Target % P/P0 30.0, 25° C.): 0.428% | Change in Mass (%) - ref, Hysteresis ([1]; Target % P/P0 30.0, 25° C.): 0.176% | Change in Mass (%) - ref, Sorption ([1]; Target % P/P0 30.0, 25° C.): 0.252% | Change in Mass (%) - ref, Desorption ([1]; Target % P/P0 40.0, 25° C.): 0.510% | Change in Mass (%) - ref, Hysteresis ([1]; Target % P/P0 40.0, 25° C.): 0.160% | Change in Mass (%) - ref, Sorption ([1]; Target % P/P0 40.0, 25° C.): 0.351% | Change in Mass (%) - ref, Desorption ([1]; Target % P/P0 50.0, 25° C.): 0.616% | Change in Mass (%) - ref, Hysteresis ([1]; Target % P/P0 50.0, 25° C.): 0.184% | Change in Mass (%) - ref, Sorption ([1]; Target % P/P0 50.0, 25° C.): 0.432% | Change in Mass (%) - ref, Desorption ([1]; Target % P/P0 60.0, 25° C.): 0.786% | Change in Mass (%) - ref, Hysteresis ([1]; Target % P/P0 60.0, 25° C.): 0.221% | Change in Mass (%) - ref, Sorption ([1]; Target % P/P0 60.0, 25° C.): 0.566% | Change in Mass (%) - ref, Desorption ([1]; Target % P/P0 70.0, 25° C.): 1.139% | Change in Mass (%) - ref, Hysteresis ([1]; Target % P/P0 70.0, 25° C.): 0.391% | Change in Mass (%) - ref, Sorption ([1]; Target % P/P0 70.0, 25° C.): 0.747% | Change in Mass (%) - ref, Desorption ([1]; Target % P/P0 80.0, 25° C.): 1.583% | Change in Mass (%) - ref, Hysteresis ([1]; Target % P/P0 80.0, 25° C.): 0.583% | Change in Mass (%) - ref, Sorption ([1]; Target % P/P0 80.0, 25° C.): 1.000% | Change in Mass (%) - ref, Desorption ([1]; Target % P/P0 90.0, 25° C.): 2.135% | Change in Mass (%) - ref, Sorption ([1]; Target % P/P0 90.0, 25° C.): 2.135% | change of assay and TRS (in words) ([2]; 40° C., 60° C., 40° C./75% RH, 60° C./75% RH at end of the first and second weeks): no significant change | Remaining (%) ([2]; 40° C., 7 d): 99.70% | Appearance ([2]; 40° C., 7 d): No change | TRS (%) ([2]; 40° C., 7 d): 1.28% and 1.30% | Remaining (%) ([2]; 40° C., 14 d): 100.02% | Appearance ([2]; 40° C., 14 d): No change | TRS (%) ([2]; 40° C., 14 d): 1.29% and 1.32% | Remaining (%) ([2]; 40° C./75% RH, 7 d): 100.47% | Appearance ([2]; 40° C./75% RH, 7 d): No change | TRS (%) ([2]; 40° C./75% RH, 7 d): 1.34% and 1.31% | Remaining (%) ([2]; 40° C./75% RH, 14 d): 99.47% | Appearance ([2]; 40° C./75% RH, 14 d): No change | TRS (%) ([2]; 40° C./75% RH, 14 d): 1.35% and 1.33% | Remaining (%) ([2]; 60° C., 7 d): 100.80% | Appearance ([2]; 60° C., 7 d): No change | TRS (%) ([2]; 60° C., 7 d): 1.37% and 1.35% | Remaining (%) ([2]; 60° C., 14 d): 100.41% | Appearance ([2]; 60° C., 14 d): No change | TRS (%) ([2]; 60° C., 14 d): 1.38% and 1.35% | Remaining (%) ([2]; 60° C./75% RH, 7 d): 100.89% | Appearance ([2]; 60° C./75% RH, 7 d): No change | TRS (%) ([2]; 60° C./75% RH, 7 d): 1.33% | Remaining (%) ([2]; 60° C./75% RH, 14 d): 100.07% | Appearance ([2]; 60° C./75% RH, 14 d): No change | TRS (%) ([2]; 60° C./75% RH, 14 d): 1.35% and 1.33% | Remaining (%) ([2]; Light, 7 d): 97.50% | Appearance ([2]; Light, 7 d): Light yellow | TRS (%) ([2]; Light, 7 d): 3.07% and 3.05% | Remaining (%) ([2]; Light, 14 d): 92.81% | Appearance ([2]; Light, 14 d): Light yellow | TRS (%) ([2]; Light, 14 d): 6.30% and 6.54% | Appearance ([2]; −20° C. (control), 7 d): No change | TRS (%) ([2]; −20° C. (control), 7 d): 1.23% and 1.22% | Appearance ([2]; −20° C. (control), 14 d): No change | TRS (%) ([2]; −20° C. (control), 14 d): 1.24% and 1.23% | physical stability (XRPD, DSC, TGA) ([3]; 40° C., 60° C. and light at the end of the first and second week): stable | physical stability (XRPD, DSC, TGA), form conversion ([3]; 40° C./75% RH at the end of the second week): partially converted to form G | physical stability (XRPD, DSC, TGA), form conversion ([3]; 60° C./75% RH at the end of the first and second weeks): completely converted to form G | Bulk Density [4]: 0.177 g/mL | Tapped Density [4]: 0.282 g/mL | bulk and tapped densities (in words) ([4]; compared among forms V, IX, XI and form G): lowest bulk and tapped densities
